We go through 5 molecules from patent publication US7649010B2, “Carvedilol hydrobromide” (SmithKline Beechman Cork Limited, priority 2002, dated 2010).

Structures are written as SMILES. Values after ≈ are worked out from the molar mass of the structure shown. Structures can show the parent of a compound that is named as a salt.

Data set [1] is described as follows: pKa of the α-hydroxyl secondary amine functional group. The class given is physicochemical. From the text:
(§1) At lower pH values (i.e., at a pH of 1 to 4 in various buffer systems), solubility of carvedilol is limited by the solubility of its protonated form or its corresponding salt formed in-situ.

Another data set is described as follows: physchem. The following applies: thermodynamic from solid.
Excerpt: as §1

Another data set relates to α-adrenergic. The conditions noted are these: cited from earlier work.
The test system of a further data set is β-adrenoreceptor. The following applies: cited from earlier work.
Data set [2] can be described thus: solubility of the in-situ salt in acidic medium (simulated gastric fluid). The class given is physicochemical. The following applies: generated in-situ in an acidic medium, such as simulated gastric fluid.
Data set [3] in a line: aqueous solubility of the crystalline salt compared with free base and other salts. It counts as physicochemical.

In general, pKa refers to the negative logarithm of the acid dissociation constant. A higher pKa goes with a weaker acid or stronger base. As usually defined, the solubility is the concentration that dissolves in the medium under given conditions. Higher therefore signals a readily soluble substance. Molecule `COc1ccccc1OCCNCC(O)COc1cccc2[nH]c3ccccc3c12` (racemic) [Carvedilol] came in with a pKa in data set [1] of 7.8. The solubility in the data set “physchem” (pH 5, aqueous buffer) was about 100 µg/mL (≈ 246 µM); in “physchem” (pH 7, aqueous buffer), about 23 µg/mL (≈ 56.6 µM); in the data set “physchem” (pH 9, aqueous buffer), under 1 µg/mL.

Turning to `COc1ccccc1OCCNC[C@@H](O)COc1cccc2[nH]c3ccccc3c12` (single isomer, unassigned) [R(+) enantiomer], the α-adrenergic blocking activity entry with α-adrenergic is “exhibited”.

In the case of `COc1ccccc1OCCNC[C@H](O)COc1cccc2[nH]c3ccccc3c12` (single isomer, unassigned) [S(−) enantiomer], the α-adrenergic blocking activity result with α-adrenergic was “exhibited”. For the same molecule, in the data set with β-adrenoreceptor, the “nonselective β-adrenoreceptor blocking activity” value is reported as “exhibited”.

Take `COc1ccccc1OCCNCC(O)COc1cccc2[nH]c3ccccc3c12.Cl` (stereo not shown) [hydrochloride salt of carvedilol]: the “solubility relative to the protonated form of carvedilol” value in data set [2] is listed as “less soluble”.

On to `COc1ccccc1OCCNCC(O)COc1cccc2[nH]c3ccccc3c12` (stereo not shown) [carvedilol hydrobromide], for which, in data set [3] (novel crystalline form), the “solubility compared to the free base of carvedilol” value is listed as “much higher solubility”. Further, the “aqueous solubility relative to free base or other crystalline salts (hydrochloride)” value in data set [3] (pure crystalline solid) was “much higher aqueous solubility”.
